Source: US9744158B2, “Veterinary antiprolactinic composition for ruminants” (CEVA SANTE ANIMALE, priority 2008, dated 2017)

Tested on: gestating cows
Assay: Clinical safety study (abortion, fetal toxicity) in gestating ruminants (Example 3)
Type: in vivo
Settings: two injections at interval of 48 hours, 25 mcg/kg
Method: This study aims to show the absence of risks such as abortions and fetus toxicity during the use of cabergoline in gestating ruminants even in the case of an overdose of cabergoline based veterinary compositions according to the regimen prescribed in the present invention. Groups of cows at different gestating stages receive the treatment at different doses: • 3 months of gestation (6 animals), dose of 15 mcg/kg—2 injections at an interval of 48 hours • 7 to 8 months of gestation: (5 animals), dose of 15 mcg/kg—2 injections at an interval of 48 hours • 6.5 to 7.5 months of gestation: (11 animals), dose of 25 mcg/kg—2 injections an interval of 48 hours
The formulation described in the Example 1, containing 500 mcg/ml of cabergoline in injectable solution is used in this study.
Regular clinical exams were conducted during a period lasting from 7 days before the treatment to 15 days after the treatment:
Daily general inspection and abortions,
Clinical exam of the genital tract including transrectal palpation and an ultrasound, in order to evaluate the suffering and fetal viability.
Blood samplings are conducted one day before the treatment and 15 days after the treatment to follow the plasmatic concentrations of different hormones and proteins indicating the health of the placenta and fetus, such as progesterone, estrone sulfate and the PAG (Pregnancy Associated Glycoprotein). […]

C=CCN1C[C@H](C(=O)N(CCCN(C)C)C(=O)NCC)C[C@@H]2c3cccc4[nH]cc(c34)C[C@H]21 [cabergoline, N-[3-(Dimethylamino)propyl]-N-[(ethylamino)carbonyl]-6-(2-propenyl)-8 g-ergoline-8-carboxamide]
abortions: do not provoke any abortions
harmful effect on the gestation, viability and health of the new born calves: neither do they have any harmful effect
